Results on seven compounds are retold here after ChEMBL document CHEMBL1201862, “PubChem BioAssay data set” (2004).

The source made the active and inactive calls. Where only a bound is given, the exact number is not on record here.

The target of assay [1] is Delta-type opioid receptor (Homo sapiens, UniProt P41143). Kind of assay: SAR Analysis of Antagonists of the DOR Receptor using an Image-Based Assay - Set 3. [Related pubchem assays (depositor defined):AID1777, AID1785]. It is filed as functional.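 Note: U2OS cells expressing DOR1 and beta-arrestin GFP stimulated with 100 nM SNC80; imaging of GFP-tagged beta-arrestin moving into spots after receptor activation.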
Chain of Delta-type opioid receptor (P41143 whole entry): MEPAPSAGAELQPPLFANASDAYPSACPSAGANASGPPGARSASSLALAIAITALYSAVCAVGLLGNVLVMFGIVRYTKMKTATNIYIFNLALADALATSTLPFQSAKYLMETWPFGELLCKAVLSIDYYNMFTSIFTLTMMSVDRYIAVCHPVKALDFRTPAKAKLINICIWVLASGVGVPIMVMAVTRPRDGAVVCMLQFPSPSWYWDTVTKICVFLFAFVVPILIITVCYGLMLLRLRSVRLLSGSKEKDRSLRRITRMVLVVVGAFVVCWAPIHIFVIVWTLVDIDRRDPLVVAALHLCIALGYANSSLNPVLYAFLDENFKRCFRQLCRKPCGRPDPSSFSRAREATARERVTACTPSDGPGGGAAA
In a further assay the target is Mu-type opioid receptor (Homo sapiens, UniProt P35372). Kind of assay: SAR Analysis of Antagonists of the MOR Receptor using an Image-Based Assay - Set 3. [Related pubchem assays (depositor defined):AID1777, AID1785, AID1786, AID1966, AID2133, AID2136, AID2284, AID2285, AID2420]. It is filed as functional.
Chain of Mu-type opioid receptor (P35372 whole entry): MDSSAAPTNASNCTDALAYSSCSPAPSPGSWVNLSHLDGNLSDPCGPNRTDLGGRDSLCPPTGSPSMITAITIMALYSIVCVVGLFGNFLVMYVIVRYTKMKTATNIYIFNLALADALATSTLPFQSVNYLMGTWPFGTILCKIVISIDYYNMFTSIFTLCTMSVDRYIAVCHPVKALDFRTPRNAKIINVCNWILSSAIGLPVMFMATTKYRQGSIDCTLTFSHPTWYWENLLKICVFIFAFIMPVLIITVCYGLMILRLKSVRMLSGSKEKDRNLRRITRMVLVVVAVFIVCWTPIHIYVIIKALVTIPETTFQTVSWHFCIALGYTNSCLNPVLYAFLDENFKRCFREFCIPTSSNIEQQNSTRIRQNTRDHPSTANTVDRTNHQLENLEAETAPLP
The target in assay [2] is T1, Kappa-type opioid receptor (Homo sapiens, UniProt P41145). Kind of assay: SAR analysis of small molecule antagonists of the kappa opioid receptor via a luminescent beta-arrestin assay - Set 3. [Related pubchem assays (depositor defined):AID1777, AID1778, AID1785, AID1786, AID1966, AID2133, AID2136, AID2285, AID2495]. It is filed as functional.
T1 sequence (P41145 whole entry): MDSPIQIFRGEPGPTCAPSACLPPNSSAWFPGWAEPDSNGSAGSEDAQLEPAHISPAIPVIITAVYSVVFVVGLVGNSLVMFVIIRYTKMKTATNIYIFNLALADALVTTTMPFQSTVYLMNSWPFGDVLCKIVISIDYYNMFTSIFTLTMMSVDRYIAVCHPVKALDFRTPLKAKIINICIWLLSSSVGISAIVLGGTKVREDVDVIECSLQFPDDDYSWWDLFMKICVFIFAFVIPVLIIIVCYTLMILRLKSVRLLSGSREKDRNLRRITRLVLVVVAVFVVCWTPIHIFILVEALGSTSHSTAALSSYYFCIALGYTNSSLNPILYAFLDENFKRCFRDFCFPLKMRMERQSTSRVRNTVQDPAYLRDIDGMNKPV
In assay [3] the target is T1, Kappa-type opioid receptor. Kind of assay: SAR analysis of Antagonists of the Kappa Opioid Receptor (KOR) using an Image-Based Assay - Set 3. [Related pubchem assays (depositor defined):AID1777, AID1785]. It is filed as functional.
In another assay the target is Caspase-7 (Homo sapiens, UniProt P55210). Kind of assay: procaspase-7 activators, dose response, counter-screen for procaspase-3 activator project, biochemical, absorbance (AID 489013). Background: The purpose of a counterscreen is to sort out artefacts and off-target activity.
Chain of Caspase-7 (P55210 24-198 limits assumed): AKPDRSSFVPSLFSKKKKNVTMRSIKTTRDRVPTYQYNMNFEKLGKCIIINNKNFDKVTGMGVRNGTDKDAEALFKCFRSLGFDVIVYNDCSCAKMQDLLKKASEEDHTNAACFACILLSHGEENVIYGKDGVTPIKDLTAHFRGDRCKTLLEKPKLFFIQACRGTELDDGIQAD
Chain of Caspase-7 (P55210 207-303 limits assumed): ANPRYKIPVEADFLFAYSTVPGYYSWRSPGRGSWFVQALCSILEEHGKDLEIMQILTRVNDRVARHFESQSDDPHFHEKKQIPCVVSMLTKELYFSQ
The next assay concerns the target T2, Caspase-3 (Homo sapiens, UniProt P42574).
T2 sequence (P42574 whole entry): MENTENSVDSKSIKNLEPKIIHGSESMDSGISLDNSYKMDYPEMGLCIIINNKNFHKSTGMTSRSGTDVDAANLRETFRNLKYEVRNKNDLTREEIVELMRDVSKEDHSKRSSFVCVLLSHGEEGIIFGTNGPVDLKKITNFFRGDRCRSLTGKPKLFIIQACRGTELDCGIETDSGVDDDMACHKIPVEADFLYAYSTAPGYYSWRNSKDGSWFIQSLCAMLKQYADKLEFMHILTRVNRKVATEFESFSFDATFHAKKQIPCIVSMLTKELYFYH
In words: procaspase-3 activators, dose response, biochemical, absorbance (AID 489014).

The target of assay [4] is G-protein coupled receptor 35 (Homo sapiens, UniProt Q9HC97). Kind of assay: SAR analysis of Antagonists of the GPR35 Receptor using an Image-Based Assay - Set 5. [Related pubchem assays (depositor defined):AID2058, AID2079]. It is filed as functional.
Chain of G-protein coupled receptor 35 (Q9HC97 whole entry): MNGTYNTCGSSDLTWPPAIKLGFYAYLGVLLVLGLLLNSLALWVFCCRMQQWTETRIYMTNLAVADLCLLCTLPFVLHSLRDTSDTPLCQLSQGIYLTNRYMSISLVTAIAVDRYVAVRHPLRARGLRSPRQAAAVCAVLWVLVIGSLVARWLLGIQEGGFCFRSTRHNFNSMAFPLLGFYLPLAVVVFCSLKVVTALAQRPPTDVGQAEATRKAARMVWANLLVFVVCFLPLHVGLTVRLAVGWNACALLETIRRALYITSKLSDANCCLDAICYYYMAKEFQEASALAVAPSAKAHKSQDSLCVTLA
In assay [5] the target is G-protein coupled receptor 55 (Homo sapiens, UniProt Q9Y2T6). In words: SAR Analysis of Selective Antagonists of GPR55 using an Image-Based Assay - Set 3. [Related pubchem assays (depositor defined):AID2058, AID2079]. It is filed as functional.
Chain of G-protein coupled receptor 55 (Q9Y2T6 whole entry): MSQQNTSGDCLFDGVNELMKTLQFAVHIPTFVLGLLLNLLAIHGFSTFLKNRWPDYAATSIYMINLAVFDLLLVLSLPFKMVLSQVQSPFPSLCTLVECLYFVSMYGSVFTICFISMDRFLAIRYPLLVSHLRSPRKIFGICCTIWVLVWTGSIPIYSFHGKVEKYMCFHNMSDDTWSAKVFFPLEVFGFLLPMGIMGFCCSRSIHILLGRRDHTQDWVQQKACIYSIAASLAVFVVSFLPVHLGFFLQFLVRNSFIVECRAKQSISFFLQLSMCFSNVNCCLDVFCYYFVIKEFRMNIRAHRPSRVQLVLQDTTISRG
Assay [6] concerns the target Voltage-dependent T-type calcium channel subunit alpha-1H (Homo sapiens, UniProt O95180). In words: Cav3.2 T-type channel inhibitors, cell-based, synthetic library set 1, calcium flux (AID 493022). It is filed as functional. A general note: Calcium assays in cells follow changes in intracellular calcium, usually with a dye or a luminescent sensor.
Assay [7] concerns A-375. Kind of assay: MITF: Counter assay: A375 proliferation Measured in Cell-Based System Using Plate Reader - 2084-03_Inhibitor_Dose_DryPowder_Activity. [Related pubchem assays (depositor defined):AID488944]. It is filed as functional. As to conditions: Homo sapiens.
For a further assay, the system named is Vero. In words: cells. It is filed as functional. The settings on record: Chlorocebus sabaeus.
Assay [8] relates to A-375. Kind of assay: A375 melanoma cell viability reduction, dose response, counter-screen for MITF modulator project, cherry-pick samples, set 2 (AID 540335). It is filed as functional, cell-based. The settings on record: Homo sapiens.
Assay [9] has as its target T3, Microphthalmia-associated transcription factor (Homo sapiens, UniProt O75030).
T3 sequence (O75030 whole entry): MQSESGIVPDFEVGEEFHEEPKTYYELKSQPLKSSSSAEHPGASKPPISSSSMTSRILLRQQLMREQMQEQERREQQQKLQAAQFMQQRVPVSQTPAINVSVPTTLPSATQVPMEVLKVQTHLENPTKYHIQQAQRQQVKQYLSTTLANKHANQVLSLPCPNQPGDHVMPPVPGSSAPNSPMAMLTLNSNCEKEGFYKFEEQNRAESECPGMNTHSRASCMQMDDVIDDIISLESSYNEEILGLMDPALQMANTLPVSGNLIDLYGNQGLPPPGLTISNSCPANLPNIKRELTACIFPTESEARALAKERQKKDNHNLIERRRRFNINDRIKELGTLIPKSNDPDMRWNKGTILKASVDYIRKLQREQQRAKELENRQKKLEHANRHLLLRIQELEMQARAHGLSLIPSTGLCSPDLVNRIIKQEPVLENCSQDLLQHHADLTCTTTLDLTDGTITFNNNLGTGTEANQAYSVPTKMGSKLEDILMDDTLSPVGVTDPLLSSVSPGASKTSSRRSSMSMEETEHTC
Kind of assay: TRPM1 promoter luciferase signal decrease, dose response, MITF inhibitor project, cell-based, SK-MEL-5, cherry-picked, set 3 (AID 493073).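 Note: SK-MEL-5 melanoma cells with luciferase driven by the MITF target TRPM1 promoter.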 It is filed as functional.

A further assay has as its target Integrin alpha-4 (Homo sapiens, UniProt P13612). In words: VLA-4 integrin allosteric ligands, SAR follow-up, cell-based, LIBS antibody binding, flow cytometry (AID 488791). It is filed as functional. On the technique in general: In flow cytometry, cells or beads pass a laser one at a time.
The target in assay [10] is T4, Short transient receptor potential channel 4 (Mus musculus, UniProt Q9QUQ5).
T4 sequence (Q9QUQ5 whole entry): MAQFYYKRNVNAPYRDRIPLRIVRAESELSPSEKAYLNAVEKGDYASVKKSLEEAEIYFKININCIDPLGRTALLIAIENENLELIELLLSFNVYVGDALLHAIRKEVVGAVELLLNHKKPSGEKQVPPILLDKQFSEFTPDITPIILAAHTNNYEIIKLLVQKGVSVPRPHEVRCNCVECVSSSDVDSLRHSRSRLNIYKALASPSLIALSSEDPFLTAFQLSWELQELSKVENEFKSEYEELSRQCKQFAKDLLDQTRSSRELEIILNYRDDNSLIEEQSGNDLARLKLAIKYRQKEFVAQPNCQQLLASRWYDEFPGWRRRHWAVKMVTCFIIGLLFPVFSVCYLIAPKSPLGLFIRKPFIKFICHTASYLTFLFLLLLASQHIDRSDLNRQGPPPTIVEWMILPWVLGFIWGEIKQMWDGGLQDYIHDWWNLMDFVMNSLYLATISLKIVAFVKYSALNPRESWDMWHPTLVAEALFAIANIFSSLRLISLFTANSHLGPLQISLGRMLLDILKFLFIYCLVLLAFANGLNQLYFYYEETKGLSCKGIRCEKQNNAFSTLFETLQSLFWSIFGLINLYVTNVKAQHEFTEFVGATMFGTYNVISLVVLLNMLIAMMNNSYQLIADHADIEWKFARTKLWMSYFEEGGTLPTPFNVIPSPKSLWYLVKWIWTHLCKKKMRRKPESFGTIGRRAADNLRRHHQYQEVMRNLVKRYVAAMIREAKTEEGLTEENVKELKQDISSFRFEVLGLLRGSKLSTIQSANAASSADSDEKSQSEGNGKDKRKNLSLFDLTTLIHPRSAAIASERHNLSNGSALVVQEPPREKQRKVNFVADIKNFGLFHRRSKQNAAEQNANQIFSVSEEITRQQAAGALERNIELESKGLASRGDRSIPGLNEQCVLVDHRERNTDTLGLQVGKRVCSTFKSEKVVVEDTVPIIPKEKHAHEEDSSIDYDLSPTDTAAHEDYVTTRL
In words: TRPC4 positive allosteric modulators, dose response, cell-based, HEK293 TRPC4/mu-opioid, Fluo-4 calcium, EC20 DAMGO (AID 434941).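 Note: HEK293 cells coexpressing TRPC4 and mu opioid receptor stimulated by EC20 DAMGO.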 It is filed as functional.

A further assay has as its system HEK293. In words: inhibitors of LMP1-driven NF-kB reporter, dose response, cell-based, HEK293, luciferase, cherry-pick (AID 588343). It is filed as functional. The settings on record: Homo sapiens.
In assay [11] the target is T5, Heat shock factor protein 1 (Mus musculus, UniProt P38532).
T5 sequence (P38532 whole entry): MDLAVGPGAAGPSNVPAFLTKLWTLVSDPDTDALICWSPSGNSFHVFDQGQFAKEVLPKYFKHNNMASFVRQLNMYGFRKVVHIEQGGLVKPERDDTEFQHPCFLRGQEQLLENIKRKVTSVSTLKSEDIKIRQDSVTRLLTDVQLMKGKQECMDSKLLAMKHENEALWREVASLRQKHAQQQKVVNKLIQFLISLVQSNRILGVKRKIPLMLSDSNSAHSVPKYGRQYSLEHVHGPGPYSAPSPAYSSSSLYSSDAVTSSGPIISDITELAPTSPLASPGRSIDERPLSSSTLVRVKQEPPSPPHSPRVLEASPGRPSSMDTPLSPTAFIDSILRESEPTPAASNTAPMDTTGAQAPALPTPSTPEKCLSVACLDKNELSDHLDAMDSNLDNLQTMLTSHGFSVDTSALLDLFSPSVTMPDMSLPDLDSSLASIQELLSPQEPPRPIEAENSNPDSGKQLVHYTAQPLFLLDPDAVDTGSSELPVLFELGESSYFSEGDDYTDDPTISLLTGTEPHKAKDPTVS
Kind of assay: inhibition of MG132-induced HSE-luciferase signal, confirmation, cell-based, NIH3T3, luminescence, dose retest (AID 2382).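 Note: NIH3T3 fibroblasts with HSF1-driven luciferase reporter stressed by proteasome inhibitor MG132; luminescence from HSF1-driven luciferase expression after 8 hours of MG132 stress.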 It is filed as functional.

In assay [12] the target is DNA dC->dU-editing enzyme APOBEC-3A (Homo sapiens, UniProt P31941). Kind of assay: APOBEC3A DNA deaminase inhibitors, dose response, biochemical (AID 504722). It is filed as functional.
Chain of DNA dC->dU-editing enzyme APOBEC-3A (P31941 whole entry): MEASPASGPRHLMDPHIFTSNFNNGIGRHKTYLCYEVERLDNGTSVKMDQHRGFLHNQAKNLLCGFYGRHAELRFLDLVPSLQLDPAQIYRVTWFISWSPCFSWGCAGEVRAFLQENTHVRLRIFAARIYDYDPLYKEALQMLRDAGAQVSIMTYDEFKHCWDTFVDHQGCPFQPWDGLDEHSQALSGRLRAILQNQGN
For assay [13], the target named is DNA dC->dU-editing enzyme APOBEC-3G (Homo sapiens, UniProt Q9HC16). In words: Dose Response confirmation of small molecule APOBEC3G DNA Deaminase Inhibitors via a fluorescence-based single-stranded DNA deaminase assay. [Related pubchem assays (depositor defined):AID493012, AID493028]. It is filed as functional.
Chain of DNA dC->dU-editing enzyme APOBEC-3G (Q9HC16 whole entry): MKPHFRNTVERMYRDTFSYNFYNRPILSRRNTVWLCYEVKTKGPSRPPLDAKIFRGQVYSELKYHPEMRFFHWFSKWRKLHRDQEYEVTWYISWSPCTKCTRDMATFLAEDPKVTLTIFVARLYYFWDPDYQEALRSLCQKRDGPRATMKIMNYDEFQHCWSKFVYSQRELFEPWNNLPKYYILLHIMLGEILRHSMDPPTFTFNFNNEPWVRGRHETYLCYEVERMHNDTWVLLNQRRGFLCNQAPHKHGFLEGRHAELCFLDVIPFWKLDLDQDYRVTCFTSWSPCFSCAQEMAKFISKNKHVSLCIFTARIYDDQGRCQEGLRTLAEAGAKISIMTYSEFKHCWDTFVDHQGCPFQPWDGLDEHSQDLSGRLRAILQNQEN
Assay [14] has as its target T6, Rac GTPase-activating protein 1 (Homo sapiens, UniProt Q9H0H5).
T6 sequence (Q9H0H5 whole entry): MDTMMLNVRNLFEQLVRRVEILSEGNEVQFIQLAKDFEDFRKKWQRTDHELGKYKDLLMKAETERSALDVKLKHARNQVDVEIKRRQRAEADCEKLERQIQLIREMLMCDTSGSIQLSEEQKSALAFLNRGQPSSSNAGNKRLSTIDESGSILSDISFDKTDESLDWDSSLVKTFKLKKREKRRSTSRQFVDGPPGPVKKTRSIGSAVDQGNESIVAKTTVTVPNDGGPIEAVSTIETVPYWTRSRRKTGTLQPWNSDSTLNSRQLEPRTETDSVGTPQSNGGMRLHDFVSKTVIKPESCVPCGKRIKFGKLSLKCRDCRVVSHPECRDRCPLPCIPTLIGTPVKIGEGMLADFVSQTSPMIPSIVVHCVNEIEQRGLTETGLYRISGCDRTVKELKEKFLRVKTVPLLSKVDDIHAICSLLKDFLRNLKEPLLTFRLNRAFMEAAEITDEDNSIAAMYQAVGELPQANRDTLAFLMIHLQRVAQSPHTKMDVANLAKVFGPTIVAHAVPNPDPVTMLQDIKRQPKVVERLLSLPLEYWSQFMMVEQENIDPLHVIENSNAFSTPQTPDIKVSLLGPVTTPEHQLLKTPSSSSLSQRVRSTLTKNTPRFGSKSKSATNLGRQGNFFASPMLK
In words: MgcRacGAP GTPase-activating activity inhibitors, confirmation, biochemical, ADP Hunter fluorescence, primary and confirmatory (AID 624330). It is filed as functional.

Chain of Integrin alpha-4 (P13612 whole entry): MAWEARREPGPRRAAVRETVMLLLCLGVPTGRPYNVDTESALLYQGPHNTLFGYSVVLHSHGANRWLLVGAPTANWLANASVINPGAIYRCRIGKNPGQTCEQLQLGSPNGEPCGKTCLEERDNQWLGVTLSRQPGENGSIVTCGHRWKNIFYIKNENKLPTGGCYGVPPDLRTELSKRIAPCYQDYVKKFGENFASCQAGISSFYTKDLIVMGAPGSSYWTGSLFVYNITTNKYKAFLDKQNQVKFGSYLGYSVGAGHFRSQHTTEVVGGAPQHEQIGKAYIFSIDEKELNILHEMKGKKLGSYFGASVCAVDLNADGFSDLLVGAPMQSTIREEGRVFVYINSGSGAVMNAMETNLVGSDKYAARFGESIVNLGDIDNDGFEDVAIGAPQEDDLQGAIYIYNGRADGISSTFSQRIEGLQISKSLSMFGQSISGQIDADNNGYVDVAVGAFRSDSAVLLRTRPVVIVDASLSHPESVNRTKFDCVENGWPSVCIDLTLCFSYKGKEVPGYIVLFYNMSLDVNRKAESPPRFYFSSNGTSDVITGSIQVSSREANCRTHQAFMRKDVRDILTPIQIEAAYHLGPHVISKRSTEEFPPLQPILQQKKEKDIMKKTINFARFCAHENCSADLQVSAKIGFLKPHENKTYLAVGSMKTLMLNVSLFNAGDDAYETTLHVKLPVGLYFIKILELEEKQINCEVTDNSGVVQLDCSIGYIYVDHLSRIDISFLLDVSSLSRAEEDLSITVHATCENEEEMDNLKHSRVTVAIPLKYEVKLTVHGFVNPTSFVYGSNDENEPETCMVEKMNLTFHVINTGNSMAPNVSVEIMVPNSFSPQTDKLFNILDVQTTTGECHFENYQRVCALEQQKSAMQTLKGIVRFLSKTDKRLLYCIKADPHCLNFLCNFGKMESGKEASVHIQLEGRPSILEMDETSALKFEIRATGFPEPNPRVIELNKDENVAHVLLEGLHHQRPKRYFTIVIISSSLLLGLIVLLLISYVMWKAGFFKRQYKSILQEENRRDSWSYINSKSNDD

As a reminder, the IC50 is the concentration needed to halve the response being measured. `CCc1ccc(S(=O)(=O)NCc2ccc(C(=O)NCCN(Cc3ccccc3)C(C)CC)cc2)cc1` (stereo not given): the IC50 in assay [1] was > 32 µM (inactive); at Mu-type opioid receptor it was > 32 µM (inactive); in assay [2], 1.42 µM (active); in [3], 0.47 µM (active).

A word on the EC50: it is the concentration giving half of the maximal effect. For the compound `CC(=O)NCCc1nc2ccccc2n1Cc1ccc(C)cc1`, the EC50 on Caspase-7 and at Caspase-3 was > 85.2 µM (inactive) each time.

As for `COC(=O)c1cnn(-c2ccccc2)c1/C=N/NC(=S)NC(C)(C)C`, the results for the IC50 in [4] and in assay [5] were 0.307 µM (active) and 6.58 µM (active), respectively.

As to `O=C(COc1ccc(Cl)cc1)Nc1nnc(-c2ccc3ccccc3c2)o1`, the EC50 in assay [6] is 10 µM (active).

Broadly, the AC50 is the concentration giving half of the maximal activity seen. In general, CC50 refers to the concentration that lowers cell viability or growth by half. For `CCOCCCNC(=O)/C(C#N)=C/c1ccc(Cl)c([N+](=O)[O-])c1`, the concentration at half-maximal activity (AC50) was > 35 µM (active) in the assay on A-375 [7], > 35 µM (active) in the assay on A-375 [8] and 7.38 µM (active) in assay [9]. The half-maximal cytotoxic concentration (CC50) with Vero is > 25 µM (active). Besides, the EC50 on Integrin alpha-4 is > 90.8 µM (inactive).

In the case of `N#CC1=C(N)C(C#N)(C#N)C(c2cccnc2)C2CC(c3ccccc3)CC=C12` (stereo not given), the EC50 in assay [10] was 4.73 µM (active); in assay [11], > 195 µM (not active). In addition, the half-maximal activity concentration (AC50) with HEK293 is 10.5 µM (active).

As for `O=[N+]([O-])c1cccc(/C=N/n2c(S)nnc2-c2cccnc2)c1`, the IC50 in assay [12] was > 100 µM (inactive); in assay [13], 2.33 µM (active); in assay [14] it was 31.9 µM (active).
